Data as given in paper PMC10712727, “Safety, Tolerability, and Pharmacokinetics of Senaparib, a Novel PARP1/2 Inhibitor, in Chinese Patients With Advanced Solid Tumors: A Phase I Trial” (The Oncologist, 2023).

Test system: advanced solid tumors
Assay: Tumor response per RECIST v1.1 (ORR, DCR, DOR, PFS), ITT population
Format: in vivo, human
Excerpt: The dose-expansion period included 3 populations: dose groups in which at least one patient achieved complete response (CR) or partial response (PR) per RECIST v1.1[16] and 1 dose group higher (evaluated for safety), as well as the dose group at the maximum tolerated dose (MTD)/recommended phase II dose (RP2D). Each of these groups included those patients in the respective dose-escalation group plus a planned additional 10 patients (approximately 20 patients in the MTD/RP2D group) with BRCA^mut+ solid tumors (ovarian, breast, or prostate cancer were preferred, and ovarian cancer could be BRCA wild type). Patients received senaparib monotherapy orally QD or BID (50-mg dose only) over each 3-week cycle until disease progression or unacceptable toxicity.
Safety was assessed by recording the incidence of dose-limiting toxicities (DLTs), and the incidence, nature, severity (graded per National Cancer Institute Common Terminology Criteria for Adverse Events version 4.03 [NCI CTCAE v4.03][18]), and relatedness of treatment-emergent adverse events (TEAEs). DLTs were predefined toxicities (Supplementary Table S2) recorded over the 7 days following the single-dose administration of senaparib and during the first treatment cycle (day 1-day 21) for each dose group in the dose-escalation period only. The MTD was defined as the maximum dose at which ≤1/6 patients experienced a DLT. Senaparib PK parameters were derived from blood samples collected from patients after the single administration, and at regular intervals during the first cycle of the dose-escalation and dose-expansion periods. Plasma concentrations of senaparib were determined using high-performance liquid chromatography-tandem mass spectrometry. Tumor response was assessed every 6 weeks per RECIST v1.1,[16] recording objective response rate (ORR), disease control rate (DCR), duration of response (DOR), and progression-free survival (PFS) by dose level for all patients and for those harboring BRCA^mut+ tumors.
There was no formal sample size calculation based on statistical hypothesis testing for this study; the planned enrolment was approximately 30-60 patients across the dose-escalation and dose-expansion cohorts. The actual number in the dose-escalation cohort was adjusted based on the number of dose cohorts required for the modified Fibonacci dose-escalation design and the determined MTD. Definitions for all analysis populations (safety, DLT, PK, and efficacy [intent-to-treat, ITT]) are provided in Supplementary Table S2. No statistical tests were performed; patient demographic and baseline characteristics, safety/tolerability, PK parameters, and efficacy were evaluated descriptively. ORR and DCR and their 95% CIs were calculated for each group using the exact probability method. Kaplan-Meier statistics were used to estimate DOR and PFS, and their 95% CIs for each dose group separately. Dose linearity was explored based on the single-dose data of area under the time-concentration curve (AUC) and maximum plasma concentration (Cmax) using the power model (Y = α × dose β) for the dose range 2-80 mg on a log-transformed scale. The following criterion was used to determine whether dose proportionality was met: if the (2-sided) 90% CI for β was wholly contained within the interval (1 + log(0.5)/log(r), 1 + log(2)/log(r)), then dose proportionality was supported. Here, r was defined as the ratio of the highest to lowest dose. All data analyses were carried out using SAS EG7.1 or higher or (for PK parameters) WinNonlin 7.0 or higher.

[1] = ITT, evaluable n = 44, all doses

O=C(c1cc(Cn2c(=O)[nH]c(=O)c3c(F)cccc32)ccc1F)N1CCN(c2ncccn2)CC1 [Senaparib]
Patients with a reduction from baseline in tumor size (BRCA wild-type (6/18)): 33.3%
Patients with a reduction from baseline in tumor size (BRCA^mut+ patients (13/26)): 50.0%
Median PFS (ITT population, 95% CI, 56-255 days): 167 days
DOR, Events (ITT, 2 mg QD n = 1): 0 n (%)
ORR (ITT, 2 mg QD n = 1): 0 n (%)
PFS, Events (ITT, 2 mg QD n = 1): 0 (0) n (%)
DOR, Events (ITT, 5 mg QD n = 3): 0 n (%)
ORR (ITT, 5 mg QD n = 3): 0 n (%)
PFS, Events (ITT, 5 mg QD n = 3): 2 (66.7) n (%)
PFS, Median (95% CI) (ITT, 5 mg QD n = 3): 464 (45-464) days
Complete response (ITT, 10 mg QD n = 3): 0 n (%)
DCR (ITT, 10 mg QD n = 3): 1 (33.3) n (%)
DOR, Events (ITT, 10 mg QD n = 3): 0 n (%)
ORR (ITT, 10 mg QD n = 3): 0 (0) n (%)
PFS, Events (ITT, 10 mg QD n = 3): 3 (100) n (%)
PFS, Median (95% CI) (ITT, 10 mg QD n = 3): 49 (47-88) days
Partial response (ITT, 10 mg QD n = 3): 0 n (%)
Stable disease (ITT, 10 mg QD n = 3): 1 (33.3) n (%)
Complete response (ITT, 20 mg QD n = 5): 0 n (%)
DCR (ITT, 20 mg QD n = 5): 2 (50.0) n (%)
DOR, Events (ITT, 20 mg QD n = 5): 1 (50.0) n (%)
DOR, Median (95% CI) (ITT, 20 mg QD n = 5): — (1-NR)
ORR (ITT, 20 mg QD n = 5): 2 (50.0) n (%)
PFS, Events (ITT, 20 mg QD n = 5): 3 (60.0) n (%)
PFS, Median (95% CI) (ITT, 20 mg QD n = 5): 78 (39-NR) days
Partial response (ITT, 20 mg QD n = 5): 2 (50.0) n (%)
Stable disease (ITT, 20 mg QD n = 5): 0 n (%)
Complete response (ITT, 40 mg QD n = 3): 0 n (%)
DCR (ITT, 40 mg QD n = 3): 0 (0) n (%)
DOR, Events (ITT, 40 mg QD n = 3): 0 n (%)
ORR (ITT, 40 mg QD n = 3): 0 (0) n (%)
PFS, Events (ITT, 40 mg QD n = 3): 2 (66.7) n (%)
PFS, Median (95% CI) (ITT, 40 mg QD n = 3): 49 (48-NR) days
Partial response (ITT, 40 mg QD n = 3): 0 n (%)
Stable disease (ITT, 40 mg QD n = 3): 0 n (%)
Complete response (ITT, 50 mg BID n = 4): 0 n (%)
DCR (ITT, 50 mg BID n = 4): 2 (66.7) n (%)
DOR, Events (ITT, 50 mg BID n = 4): 0 n (%)
ORR (ITT, 50 mg BID n = 4): 1 (33.3) n (%)
PFS, Events (ITT, 50 mg BID n = 4): 1 (25.0) n (%)
PFS, Median (95% CI) (ITT, 50 mg BID n = 4): — (46-NR)
Partial response (ITT, 50 mg BID n = 4): 1 (33.3) n (%)
Stable disease (ITT, 50 mg BID n = 4): 1 (33.3) n (%)
Complete response (ITT, 60 mg QD n = 5): 0 n (%)
DCR (ITT, 60 mg QD n = 5): 4 (100) n (%)
DOR, Events (ITT, 60 mg QD n = 5): 0 n (%)
ORR (ITT, 60 mg QD n = 5): 1 (25.0) n (%)
PFS, Events (ITT, 60 mg QD n = 5): 2 (40.0) n (%)
PFS, Median (95% CI) (ITT, 60 mg QD n = 5): 255 (127-NR) days
Partial response (ITT, 60 mg QD n = 5): 1 (25.0) n (%)
Stable disease (ITT, 60 mg QD n = 5): 3 (75.0) n (%)
Complete response (ITT, 80 mg QD n = 9): 0 n (%)
DCR (ITT, 80 mg QD n = 9): 6 (75.0) n (%)
DOR, Events (ITT, 80 mg QD n = 9): 4 (100) n (%)
DOR, Median (95% CI) (ITT, 80 mg QD n = 9): 144.5 (39-211) days
ORR (ITT, 80 mg QD n = 9): 4 (50.0) n (%)
PFS, Events (ITT, 80 mg QD n = 9): 8 (88.9) n (%)
PFS, Median (95% CI) (ITT, 80 mg QD n = 9): 167 (40-216) days
Partial response (ITT, 80 mg QD n = 9): 4 (50.0) n (%)
Stable disease (ITT, 80 mg QD n = 9): 2 (25.0) n (%)
Complete response (ITT, 100 mg QD n = 20): 0 n (%)
DCR (ITT, 100 mg QD n = 20): 12 (70.6) n (%)
DOR, Events (ITT, 100 mg QD n = 20): 1 (50.0) n (%)
DOR, Median (95% CI) (ITT, 100 mg QD n = 20): — (169-NR)
ORR (ITT, 100 mg QD n = 20): 2 (11.8) n (%)
PFS, Events (ITT, 100 mg QD n = 20): 8 (40.0) n (%)
PFS, Median (95% CI) (ITT, 100 mg QD n = 20): 289 (48-NR) days
Partial response (ITT, 100 mg QD n = 20): 2 (11.8) n (%)
Stable disease (ITT, 100 mg QD n = 20): 10 (58.8) n (%)
Complete response (ITT, 120 mg QD n = 4): 0 n (%)
DCR (ITT, 120 mg QD n = 4): 1 (33.3) n (%)
DOR, Events (ITT, 120 mg QD n = 4): 0 n (%)
ORR (ITT, 120 mg QD n = 4): 0 (0) n (%)
PFS, Events (ITT, 120 mg QD n = 4): 3 (75.0) n (%)
PFS, Median (95% CI) (ITT, 120 mg QD n = 4): 153 (44-258) days
Partial response (ITT, 120 mg QD n = 4): 0 n (%)
Stable disease (ITT, 120 mg QD n = 4): 1 (33.3) n (%)
Complete response (ITT, Total N = 57): 0 n (%)
DCR (ITT, Total N = 57): 28 (63.6) n (%)
DOR, Events (ITT, Total N = 57): 6 (60.0) n (%)
DOR, Median (95% CI) (ITT, Total N = 57): 169 (1-NR) days
ORR (ITT, Total N = 57): 10 (22.7) n (%)
PFS, Events (ITT, Total N = 57): 32 (56.1) n (%)
PFS, Median (95% CI) (ITT, Total N = 57): 167 (56-255) days
Partial response (ITT, Total N = 57): 10 (22.7) n (%)
Stable disease (ITT, Total N = 57): 18 (40.9) n (%)
Disease control rate (DCR) [1]: 63.6%
Objective response rate (ORR) [1]: 22.7%
Stable disease, patients [1]: 40.9%
Median DOR (ITT, 95% CI, 1-not reached): 169 days
Doses at which antitumor activity was observed (in vivo): ≥ 20 mg QD
Patients with a decrease from baseline in tumor size (non-ovarian cancers (6/20)): 30.0%
Patients with a decrease from baseline in tumor size (ovarian cancer (13/24)): 54.2%
ORR (patients with breast cancer (3/12)): 25.0%
ORR (patients with ovarian cancer (5/25)): 20.0%
ORR (patients with prostate cancer (1/4)): 25.0%
